# Reference: patent US20090162351A1, “Transdiscal administration of inhibitors of p38 MAP kinase” (DePuy Spine, Inc., priority 2007, published 2009)
# Read-outs that look alike come from different tables or passages of the source.
# Assays:
# [1] = test system: bovine chondrocyte pellets / ARC tissues stimulated with IL-1β; assay: Chondrocyte pellet / ARC culture model: GAG degradation assay; assay type: cell-based; details: Bos taurus, Chondrocyte; at 5 μM; read-out: GAG Release (inhibition), Pellet Assay
# From the text: A chondrocyte pellet culture model was developed for in vitro high throughput screening of therapeutic compounds for inhibition of IL-1β-stimulated matrix degradation. The chondrocyte pellet culture model can be used to detect various potential therapeutic compounds effective in blocking different processes caused by IL-1β stimulation. For example, IL-1β stimulation results in increased glycosaminoglycan (GAG) degradation, prostaglandin E2 (PGE2) synthesis and total nitrite/nitrate production. Compounds with different mechanisms of action may inhibit the increase of one or two or all three of these parameters. For this reason, screening by, for example, measuring only GAG release would be limited to detection of a specific class of inhibitors and may not detect compounds with diversified mechanisms of function which may be involved in inhibition of the IL-1 stimulated inflammatory process. The development of the chondrocyte pellet culture assay system in a 96-well plate made possible large-scale screening of potential therapeutic compounds with different mechanisms of action.
# (§1) Calf articular cartilage was obtained from the knee joints of eight to twelve month old animals and was processed within twenty-four hours after sacrifice. After removal of muscle and ligament, the cartilage was kept moist using phosphate buffer solution (PBS) to prevent tissue dehydration, and was aseptically peeled off from subchondral bone with a scalpel, and the cartilage pieces were further minced into smaller pieces (˜0.3-0.5×˜0.2-0.5 cm cubes). […] Chondrocytes were then enzymatically isolated from the tissue by incubation for overnight at 37° C. with gentle agitation in 0.2% collagenase in Dulbecco's modified eagle media (DMEM). After removal of tissue debris by filtration through cell strainer and the residual collagenase by 3× wash in PBS, cells were finally resuspended at a density of 2.5×10^6 cells/ml in chondrocyte medium. A 1 ml aliquot of the cell suspension was dispensed into either a 15 ml Falcon centrifuge tube or a 96 deep-well plate and centrifuged at 2000×g for five minutes. The chondrocyte pellets were incubated at 37° C. in a humidified atmosphere of 5% CO2 for two to three weeks with a medium change every other day.
# (§2) As an alternative to using calf articular cartilage, a commercial Aliginate Recovered Chondrocytes (ARC) system was also used (Articular Engineering, LLC (Northbrook, Ill.)). Use of the commercial system cut down on labor and time in producing chondrocyte pellet. This system produced cartilaginous tissue in vitro using bovine chondrocytes. The first step consisted of culturing chondrocytes in alginate under conditions optimal for the formation of a cell-associated matrix (CM). The second step allowed these cells with their CM, after recovery, to rapidly form and become integrated into a solid mass of cartilage on a porous insert within two weeks.
# This tissue is rich in cells surrounded by a cell-associated matrix that is degraded rapidly when the cells are exposed to IL-1. ARC tissues in 3 mm punches at delivery were first dispensed into a 96 deep-well plate, one punch per well, for compound treatment. The subsequent procedures were the same as those used for the chondrocyte pellets.
# (§3) Chondrocyte pellets were washed once with 1 ml of Chondrocyte Stimulation Medium and equilibrated in the same medium at room temperature for fifteen to thirty minutes. Compounds were dissolved in H2O, Ethanol or dimethyl sulfoxide (DMSO) (10^−2 M) according to suppliers' instructions and further diluted with Chondrocyte Stimulation Medium to the required concentrations. DMSO concentrations in the culture media should not exceed 1%; this concentration of DMSO has no effect on cartilage proteoglycan metabolism in response to cytokines.
# The pellets were first treated with compounds at desired concentrations at 37° C. for one hour and then incubated for three to five days in the absence or presence of 10 ng/ml of IL-1β. […]
# [2] = test system: IL-1β-stimulated PGE2 synthesis in bovine chondrocyte pellets / ARC tissues; assay: Chondrocyte pellet / ARC culture model: Prostaglandin E2 assay; assay type: cell-based
# From the text: as §1, §2, §3
# (§4) The pellets were first treated with compounds at desired concentrations at 37° C. for one hour and then incubated for three to five days in the absence or presence of 10 ng/ml of IL-1β. At the end of the incubation, media and pellets were harvested and frozen for further analysis. Pellets were also fixed as needed in 4% (w/v) paraformaldehyde in PBS for histology analysis.
# Prostaglandin E2 (PGE2) was measured with a STAT-Prostaglandin E2 EIA ELISA kit (Cayman Biochemicals). This assay is based on the competition between PGE2 from 50 μl samples and a PGE2-alkaline phosphatase conjugate for a limited amount of PGE2 monoclonal antibody in a reaction volume of 150 μl at room temperature for one hour. The antibody-PGE2 complex bound to a goat polyclonal anti-mouse IgG that had been previously attached to the well. After washing to remove any unbound reagents, para-nitrophenyl phosphate (pNPP) was added to the well. The product of this enzymatic reaction absorbs strongly at 412 nm. Because of the large range in response to IL-1β and other cytokines, PGE2 values were converted to log scale prior to doing t-tests.
# To characterize the relative efficacies among different p38 MAP kinase inhibitors, dose-response curves were generated for both PGE2 and NO assays. […] After one hour of treatment, ARCs were stimulated with or without 7.5 ng/ml IL-1β and continued to incubate for five days before assay. The IL-1β-stimulated PGE2 synthesis or NO production was first calculated by subtraction of PGE2/NO levels in the absence of IL-1β from that in the presence of IL-1β. […]
# [3] = test system: IL-1β-stimulated NO production in bovine chondrocyte pellets / ARC tissues; assay: Chondrocyte pellet / ARC culture model: total nitrite and nitrate assay; assay type: cell-based; details: at 5 μM
# From the text: as §1, §2, §3, §4
# Nitrate/Nitrite levels were measured using the Griess reaction (Green L. C. et al., “Analysis of Nitrate, Nitrite, and [15N]nitrate in Biological Fluids,” Anal. Biochem. 126: 131-138 (1982)) with a Nitrate/Nitrite Colorimetric Assay Kit (Cayman Chemicals), the contents of which are incorporated herein by reference. The assay involved a simple two-step process. The first step involved conversion of nitrate in 50 μl of culture medium to nitrite utilizing nitrate reductase in a reaction volume of 100 μl at room temperature for two hours. The second step involved the addition of 50 μl of both Griess Reagent 1 and 2, which converted nitrite into a deep purple azo compound in ten minutes. Photometric measurement of the absorbance at 540 or 550 nm due to this azo chromophore accurately determined nitrite concentration. This assay kit cannot be used for RPMI (Roswell Park Memorial Institute) derived tissue culture medium due to interference with the colorimetric reaction.
# To characterize the relative efficacies among different p38 MAP kinase inhibitors, dose-response curves were generated for both PGE2 and NO assays. […] After one hour of treatment, ARCs were stimulated with or without 7.5 ng/ml IL-1β and continued to incubate for five days before assay. […]
# [4] = test system: chondrocytes; assay type: cell-based
# Method: The LDH activity was determined calorimetrically in an enzymatic test based on the conversion of lactic acid to pyruvate in the presence of chromagenic substrate tetrazolium salt INT that was reduced to formazan.
# [5] = Water solubility; assay type: physicochemical
# [6] = molecular target: CDK1 (Homo sapiens, UniProt P06493); assay: CDK1 inhibition; assay type: biochemical
# CDK1, sequence (P06493 whole entry, species assumed): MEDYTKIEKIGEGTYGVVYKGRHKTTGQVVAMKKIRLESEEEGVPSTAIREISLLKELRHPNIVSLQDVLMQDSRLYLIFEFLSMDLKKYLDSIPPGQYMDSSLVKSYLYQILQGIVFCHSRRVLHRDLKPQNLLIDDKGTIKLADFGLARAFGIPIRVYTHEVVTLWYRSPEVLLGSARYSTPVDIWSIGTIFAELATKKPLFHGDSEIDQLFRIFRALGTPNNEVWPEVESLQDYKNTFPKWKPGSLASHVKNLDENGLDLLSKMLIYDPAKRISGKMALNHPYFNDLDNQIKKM
# CDK1, sequence (P14635 whole entry partner, species assumed): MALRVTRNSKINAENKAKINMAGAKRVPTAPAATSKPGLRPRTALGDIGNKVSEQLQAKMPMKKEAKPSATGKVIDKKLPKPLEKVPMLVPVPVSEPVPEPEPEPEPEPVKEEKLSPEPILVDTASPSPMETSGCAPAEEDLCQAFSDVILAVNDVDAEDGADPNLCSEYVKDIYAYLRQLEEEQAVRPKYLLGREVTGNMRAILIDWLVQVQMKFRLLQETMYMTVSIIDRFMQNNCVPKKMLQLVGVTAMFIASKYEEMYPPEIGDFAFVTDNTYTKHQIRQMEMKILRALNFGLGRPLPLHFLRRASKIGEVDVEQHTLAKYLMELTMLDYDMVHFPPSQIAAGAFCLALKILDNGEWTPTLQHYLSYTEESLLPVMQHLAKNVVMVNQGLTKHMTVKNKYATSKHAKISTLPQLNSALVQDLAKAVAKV
# [7] = test system: human cancer cell lines; assay: Cell proliferation in culture; assay type: cell-based
# [8] = test system: human tumor xenograft models; assay: Human tumor xenograft models; assay type: in vivo; details: single agent
# [9] = test system: bovine chondrocyte pellets / ARC tissues stimulated with IL-1β; assay: Chondrocyte pellet / ARC culture model: GAG degradation assay; assay type: cell-based; details: at 5 μM, 7.5 ng/ml IL-1, five days
compound,measurement,setting,value
"Nc1nc(Nc2ccc(S(N)(=O)=O)cc2)nn1C(=O)c1c(F)cccc1F [JNJ 7706621, 4-[5-Amino-1-(2,6-difluoro-benzoyl)-1H-[1,2,4]triazol-3-ylamino]-benzenesulfonamide]",inhibition at 5 µM,[1],100%
same,"PGE2 Inhibition, Pellet Assay (in words)",[2]; Table 3B,No effect
same,PGE2 synthesis (in words),"[2]; at 5 μM, ARC tissues, 7.5 ng/ml IL-1, five days",little effect
same,inhibition at 5 µM,"[3]; Bos taurus, Chondrocyte",100%
same,NO production (in words),"[3]; ARC tissues, 7.5 ng/ml IL-1, five days",completely blocked
same,"cytotoxicity to chondrocytes, LDH (in words)",[4],little toxicity
same,solubility,[5]; at pH 7.4,17 µg/mL
same,solubility,"[5]; water, simulated gastric fluid, at pH 2, read-out: solubility",6 µg/mL
same,IC50,[6],9 nM
same,cell cycle effects (in words),[7],"induced G2M arrest, endoreduplication and apoptosis"
same,IC50,"[7]; Homo sapiens, in 9 cell lines, read-out: inhibits cell proliferation in culture, IC50",337 ± 123 nM
same,antitumor activity (in words),[8],single agent antitumor activity
same,GAG release (in words),[9],completely blocked
